How the values were obtained:
Assay type in all cases: biochemical
Natalase = assay: Organic Catalyst/Enzyme Compatibility Test (alpha amylase activity assay), Natalase; conditions: (Ac/Ab)x100; [Peracetic Acid]=5.0 ppm; [organic catalyst]=0.5 ppm; 40° C.; sample at 7 minutes 45 seconds
Duramyl = assay: Organic Catalyst/Enzyme Compatibility Test (alpha amylase activity assay), Duramyl; conditions: (Ac/Ab)x100; [Peracetic Acid]=5.0 ppm; [organic catalyst]=0.5 ppm; 40° C.; sample at 7 minutes 45 seconds
[1] = system: Termamyl, Duramyl and Natalase; assay: Organic Catalyst/Enzyme Compatibility Test, average of the three enzymes; conditions: ECV=(ECVter+ECVdur+ECVnat)/3; [Peracetic Acid]=5.0 ppm; [organic catalyst]=0.5 ppm

Row | Enzyme Compatibility Values ECVnat (Natalase) | Enzyme Compatibility Values ECVdur (Duramyl) | Enzyme Compatibility Values ECV [1] | Substance
1 | 99 | 101 | 99 | Sulfuric acid mono-[2-(3,4-dihydro-isoquinolin-2-yl)-1-(2-propylheptyloxymethyl)-ethyl]ester, internal salt [Entry 3]
2 | 102 | 101 | 101 | Sulfuric acid mono-[2-(3,4-dihydro-isoquinolin-2-yl)-1-(2-butyloctyloxymethyl)-ethyl]ester, internal salt [Entry 4]

— patent publication US20100223737A1, “ORGANIC CATALYST WITH ENHANCED ENZYME COMPATIBLITY” (priority 2009, published 2010)
